Consider 2 compounds from patent US11419843B2, “Small molecule BCL-2 functional converters as cancer therapeutics” (Oregon State University, priority 2016, dated 2022).

The subject of data set [1] is MDA-MB-468 parental and derived paclitaxel or doxorubicin resistant cells. The experiment in a line: Viability of MDA-MB-468 parental and derived resistant cells. The format is cell-based, human. Here is the method: Percentage viability relative to vehicle treatment. Representative of three independent assays in triplicate.
Percentage viability relative to vehicle treatment.
Percentage viability relative to vehicle treatment. Representative of three independent assays conducted in triplicate.
Cells of interest were plated at 2000 cells per well in 96-well black tissue culture plate and allowed to adhere to the plate overnight. Viability assays were performed using 10% serum medium unless otherwise stated. Drugs were diluted in supplemented tissue culture medium and added at increasing concentrations, with DMSO as a vehicle control. Cells were then incubated for either 48 hour or 72 hours in presence of the compound, Promega Titer Glo was added to the wells at the assay end point according to manufacturer's protocol. Luminescence was measured using Tropix TR717 Microplate luminometer. Percentage of viable cells is relative to vehicle (100%). As a complementary viability assay, eBioscience Fixable Viability Dye eFluor 660(65-0864) was used to stain dead cells and analyzed using flow cytometry.

Data set [2] deals with H460 parental and resistant cells. Description: Colony formation (2D clonogenic, 3D soft agar) of H460 parental and resistant cells. The format is cell-based, human. Conditions: treated continuously for 14 days. An excerpt:
Colony forming ability (%) relative to vehicle treatment. Representative of three independent conducted assays in triplicate.

The test system is the same in data set [3]. The experiment in a line: Annexin-V apoptosis assay in H460 parental and resistant cells. The format is cell-based, human. Conditions: BFC1108 20 μM, 48 hours. Here is the method: FIG. 25E is the results of Annexin-V apoptosis assay in H460 cells treated for 48 hours with vehicle or paclitaxel 10 nM, quantification right panel.
Cells were seeded into 6 well tissue culture plates to give approximately 50% confluence and allowed to attach overnight. The cells were then treated for a period of time indicated in figure legend with the appropriate compound at various concentrations (see figure legends). An Annexin V-conjugate PerCP-eFluor 710 apoptosis detection kit was used as described by the manufacturer's protocol (eBioscience 88-8008). Harvesting of cells included collection of floating and attached cells following trypsinization. Data were acquired using an CytoFLEX S flow cytometer (Beckman Coulter, Brea, Calif.) and 10,000 events on the PC5.5 channel were analyzed using CytExpert software (Beckman Coulter). For Nur77 GFP tagged annexin V analysis, GFP positive population were selected and then Annexin V+population was determined. For each sample, 10,000 GFP+ events were collected. Annexin V positive cell population was considered to be the apoptotic population, and the percent of annexin V positive cell population was used to determine the extent of apoptosis.

The test system of data set [4] is MDA-MB-468 parental and paclitaxel resistant cells. Description: Clonogenic survival of MDA-MB-468 parental and resistant cells. The format is cell-based, human. The note with it: treated continuously for 14 days. An excerpt: FIG. 29B is the results of clonogenic survival assays in MDA-MB-468 parental and resistant cells treated continuously for 14 days with vehicle, or indicated concentration of paclitaxel. Colony forming ability (%) relative to vehicle treatment. Representative of three independent assays conducted in triplicate.

The conditions of data set [5]: humans; cited from earlier work.
The subject of data set [6] is MDA-MB-231 cells with or without Bcl-2 expression vector. The experiment in a line: Transwell matrigel invasion assay. The format is cell-based, human. The note with it: 10 μM, 16 h. Here is the method: FIG. 10F is MDA-MB231 cells with or without Bcl-2 expression vector were treated with 10 μM MTX or vehicle in a matrigel invasion chamber for 16 h and the membrane was then fixed, stained and number of cells invaded counted.
Invasion assay was performed using BD transwell invasion assay kit. MDA-MB-231 cells were treated for 16 h at 10 μM concentration and membrane was stained with prolong anti-fade DAPI stain and number of cells invaded were counted under a fluorescent microscope.

For a further data set, the system named is WT and Bcl-2−/− MEFs. The experiment in a line: Viability of WT and Bcl-2-/- MEFs. Conditions: indicated concentrations, 10% FBS. The format is cell-based, mouse. Here is the method: FIG. 9E depicts effect of methotrexate in certain cancer cell types. Left Panel: Bcl-2 levels in WT and Bcl-2−/− MEFs. Right panel: MEF cells were exposed to indicated concentrations of Methotrexate in medium containing 10% FBS and viability was determined by cell titer glo assay.
Cell viability was determined using CellTiter Glo Luminescent Cell Viability Assay (Promega, Madison, Wis.) as per manufacturer instructions. DAPI stain was used to assess apoptosis. Colony forming assays were performed as described previously.

The target of another data set is Bcl-2 loop domain (Homo sapiens, UniProt P10415). Description: NMR titration of 15N-13C labeled Bcl-2 loop domain (HSQC chemical shift perturbation). Conditions: for Kd: 0.2 mM Bcl-2 loop titrated with 0.2-5.4 mM MTX.
Chain of Bcl-2 loop domain (P10415 29-90 limits assumed): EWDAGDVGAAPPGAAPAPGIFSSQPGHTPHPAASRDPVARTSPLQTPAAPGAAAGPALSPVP
The target of data set [7] is T1, Nur77 interaction with Bcl-2 (Homo sapiens, UniProt P10415).
T1 construct: expressed in transfected cells; host or cells: HEK293T
T1 sequence (P10415 whole entry): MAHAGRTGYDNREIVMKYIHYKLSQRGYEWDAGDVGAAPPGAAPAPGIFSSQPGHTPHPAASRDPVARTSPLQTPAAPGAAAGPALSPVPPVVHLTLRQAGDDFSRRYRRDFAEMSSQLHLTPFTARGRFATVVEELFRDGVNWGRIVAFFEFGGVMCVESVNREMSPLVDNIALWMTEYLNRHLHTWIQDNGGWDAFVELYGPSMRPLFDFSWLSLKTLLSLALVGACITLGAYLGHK
The experiment in a line: Co-immunoprecipitation, competition with Nur77 for Bcl-2. The format is binding. The note with it: 10 μM MTX, 16 h, HEK293T cells. Here is the method: Methotrexate reduced the interaction of Nur-77 with BCl-2 domain upon co-incubation indicating methotrexate interacts with the same region of loop domain as does Nur-77.
For CoIP experiments, HEK293T cells were plated in a 6 well plate and transfected with indicated expression plasmids by lipofectamine. The total amount of DNA was maintained at 2.5 μg. After 12 h of transfection, cells were treated with DMSO or 10 μM MTX for 16 h. The cells were then lysed on ice using RIPA buffer with freshly added protease inhibitor cocktail (Complete, mini, EDTA-free protease inhibitor cocktail, Roche, Inc.). The lysis buffer contained either DMSO or 10 μM MTX. Cell lysates were incubated on ice for 30 min and then spun at 14,000 rpm for 30 min at 4° C. Cleared lysates were incubated with Bcl-2 antibody (sc-509, Santacruz) and incubated at 4° C. for 2-4 h end-over-end mixing. After incubation a volume of sepharose beads (sc-2003, Santacruz) were added to each sample and left end-over-end mixing overnight at 4° C. The beads were then washed four times with RIPA buffer containing either DMSO or 10 μM and then solubilized in laemmli buffer. Proteins were analyzed on 10-12% SDS-PAGE and immunoblotted with mouse polyclonal anti-Bcl-2 (sc-509, Santacruz), mouse polyclonal anti-GFP (33-2600, Thermofisher).

The conditions of data set [8]: low dose; cited from earlier work.

Molecules are shown by their SMILES.

Consider `CCOc1ccccc1NC(=O)c1cc(Cl)ccc1NC(=O)c1ccc(OC)cc1` [BFC1108, 5-chloro-N-(2-ethoxyphenyl)-2-[(4-methoxybenzoyl)amino]-benzamide], for which the “Viability of MDA-MB-468 doxorubicin resistant cells” value in data set [1] (72 hour treatment) was “reduced viability of doxorubicin resistant cells”. Further, in [1] (72 hours), the “Viability of MDA-MB-468 paclitaxel resistant vs parental cells” value was “preferentially killed by BFC1108 in a dose dependent manner”. In addition, the “Colony formation ability of H460 resistant vs parental line” value in [2] is given as “reduced colony formation ability of resistant line preferentially”. The “Induction of apoptosis (Annexin V), H460 resistant vs parental” value in data set [3] is “induced apoptosis in the resistant line preferentially”. For the same compound, in [4], the “Colony forming ability of MDA-MB-468 paclitaxel resistant cells” value is given as “reduced colony forming ability of the paclitaxel resistant cells”.
For `CN(Cc1cnc2nc(N)nc(N)c2n1)c1ccc(C(=O)N[C@@H](CCC(=O)O)C(=O)O)cc1` [MTX, (2S)-2-[[4-[(2,4 diaminopteridin-6-yl)methylmethylamino]benzoyl]amino] pentanedioc acid], the half-life (commonly the time needed for the level to fall by half in the phase considered) in data set [5] was 7 to 10 h. For the same compound, in data set [6], the “Invasive potential of Bcl-2 over-expressing cells vs vector controls” value is “inhibited the invasive potential of Bcl-2 over-expressing cells”. Also, in the data set on WT and Bcl-2−/− MEFs, the “Bcl-2 dependent induction of apoptosis in MEFs with or without Bcl-2” value is on record as “Bcl-2 dependent induction of apoptosis by MTX was also seen in mouse embryonic fibroblast cells with or without Bcl-2”. The “Chemical shift perturbations of Bcl-2 loop domain upon titration” value at Bcl-2 loop domain (15N-1H HSQC) was “residues 55-60”. Moreover, on Bcl-2 loop domain (Hill model fit), the “Hill coefficient, His55” value was 1.2 and the “Hill coefficient, His58” value was 1.0. Moreover, on Bcl-2 loop domain (Kd from chemical shift perturbation of His55, Hill model fit), the Kd (usually the free concentration of one partner at which half of the binding sites on the other are occupied at equilibrium, for simple one-to-one binding) turned out to be 5.1 mM. Moreover, the Kd on Bcl-2 loop domain (Kd from chemical shift perturbation of His58, Hill model fit) is 11.4 mM. The “Competition with Nur77 for interaction with Bcl-2” value in data set [7] was “competition between MTX and Nur77 in interacting with the Bcl-2 protein could be seen”. In [8], the bioavailability – broadly, dose-corrected exposure relative to a reference, in per cent – is no more than 70%.
